Key:
β-catenin signaling = assay: β-catenin transcriptional activity (TOPflash) in HEK293T cells; assay type: cell-based; conditions: 5 μM each; control 1.23±0.11
[1] = Drug levels in papillomas (HPLC); conditions: equal dose of PS orally
[2] = assay type: in vivo, mice; conditions: 55° C. hot plate, 30 min after single i.p. dose; 100 mg/kg, PI-PEG 1,600 mg/kg; control 1.91 ± 0.46
skin papillomas = assay: DMBA/TPA-induced skin papillomas in FVB mice; assay type: in vivo
Description: This initiation-promotion protocol leads to papillomas by wk 10, and in a fraction of the mice to SCC by wk 20. […] Criteria similar to those used for human papilloma classification were applied to assess disease progression: hyperplasia→papilloma (Pap 1-3)→microinvasive SCC (M1-3)→invasive SCC. On wk 20, the study was terminated.

[3] = PK study of topical PSG versus oral PS; conditions: mouse, skin, topical or ocular
[4] = Inhalation versus oral delivery of PS; assay type: in vivo, mice
U87 cells = assay: 24-h growth inhibition of U87 glioblastoma cells; assay type: cell-based; conditions: Homo sapiens, U-87 MG; U87, 24 h
Experimental: U87 cells were treated with sulindac and ibuprofen as well as with the compounds. U87 is a human primary glioblastoma cell line, formally known as U-87 MG. This cell line has epithelial morphology, and is one of the most frequently used glioblastoma cell lines.

[5] = test system: A431 human squamous cell carcinoma cells; assay type: in vivo, mice; conditions: hydrogel, topical, 2 weeks, estimated 80 mg/kg
[6] = test system: AGS human gastric cancer cells; assay type: in vivo, mice; conditions: i.p. in corn oil, 3 weeks; PSA-B 200, PSA-G 200, PIA-B 160, PVA-T 100 mg/kg
[7] = test system: A549 human non-small lung cancer cells; assay: Orthotopic A549 lung tumor model in nude mice; assay type: in vivo
[8] = Biodistribution of liposomal phospho-ibuprofen amide in mice; assay type: in vivo
[9] = 200 mg/kg once a week for 8 weeks

**Q.** Which luciferase/renilla activity (β-catenin signaling) does the source give for `CCOP(=O)(OCC)OCCCCOC(=O)CC1=C(C)/C(=C/c2ccc([S+](C)[O-])cc2)c2ccc(F)cc21` (centres unmarked) [PS 118] here?
**A.** 0.76±0.03

**Q.** And the “level of PS in papillomas” value [1]?
**A.** 0.3 ± 0.2 nmol/g

**Q.** What about the “latency values (mean±SD)” value [2] of the same compound?
**A.** 4.55 ± 1.00 s

**Q.** And the “papilloma multiplicity, oral administration” value (skin papillomas; oral)?
**A.** failed to reduce papilloma multiplicity

**Q.** And the “reduction of tumor burden (average tumor volume/mouse)” value (skin papillomas; topical)?
**A.** ~90%

**Q.** What about the “thickness of the epidermis” value (skin papillomas; topical) of the same compound?
**A.** partial effect

**Q.** And the “reduction of tumor number (papillomas/mouse)” value (skin papillomas; topical application)?
**A.** merely stabilized disease progression

**Q.** What about the AUC(0-t) [3] of the same compound?
**A.** 684 µM·h

**Q.** And the Cmax [3]?
**A.** 36.1 µM

**Q.** And the Tmax [3]?
**A.** 2 h

**Q.** What about the “PS levels in plasma” value ([4]; inhalation and oral) of the same compound?
**A.** undetectable

**Q.** And the “level of intact PS in lungs” value ([4]; inhalational 6.5 mg/kg)?
**A.** > 20 nmol/g

**Q.** And the “total drug levels in lungs, inhalation vs oral” value ([4]; mouse, in vivo, po)?
**A.** significantly higher compared to those by oral administration

**Q.** What about the “level of intact PS in lungs” value ([4]; oral 150 mg/kg) of the same compound?
**A.** < 2 nmol/g

**Q.** What about the IC50 (U87 cells) of the same compound?
**A.** 114 µM

**Q.** Which tumor growth inhibition [5] does the source give for `CCOP(=O)(OCC)OCCCCNC(=O)C(C)c1ccc(CC(C)C)cc1` (centres unmarked) [Phospho-ibuprofen amide 105, Phosphoric acid diethyl ester 4-[2-(4-isobutyl-phenyl)-propionylamino]-butyl ester] here?
**A.** 51.5%

**Q.** What about the “latency values (mean±SD)” value [2] of the same compound?
**A.** 3.80 ± 0.46 s

**Q.** And the tumor growth inhibition [6]?
**A.** 33.8%

**Q.** What about the “reduction based on lung tumor weight / lung weight” value [7, 9] of the same compound?
**A.** 80%

**Q.** What about the “reduction of lung cancer based on fluorescence” value [7, 9] of the same compound?
**A.** 95%

**Q.** And the “lung cancer on fluorescence images of lungs” value ([7]; liposomal, I.V.)?
**A.** essentially eliminated lung cancer

**Q.** And the “blood and tissue levels of intact compound” value ([8]; compared with corresponding carboxylic ester compound)?
**A.** significant blood and tissue levels of intact compound

**Q.** And the “biodistribution in major organs” value ([8]; liposomal, single 200 mg/kg i.v., 1 h)?
**A.** preferentially accumulated in lungs
